Assay results taken from patent publication US11318141B2, “Methods and compositions related to STK1-targeted small molecules as antibiotic resistance breakers” (Ohio State Innovation Foundation, priority 2017, dated 2022).

How the values were obtained:
[1] = Stability in serum and body fluid; type: in vitro ADME
[2] = system: S. aureus MW2-WT; assay: Time-to-kill assay (OD and CFU counts over 16 h), broth dilution; type: cell-based, Staphylococcus aureus
Protocol: FIGS. 4A-F show. […] Optical Density and corresponding Colony forming units of (C and D) MW2-WT and (E and F) MW2ΔSTK1 cultures in the presence or absence 50 μM Inh2-B1, 1.51 μM (1 μg/ml) Ceftriaxone, 2.125 μM (1 μg/ml) Cefotaxime, and combination of Inh2-B1 plus Ceftriaxone, and Inh2-B1 plus Cefotaxime. The experiments were carried out as described in the Materials and Method section using Muller-Hinton broth and seeded with 4×10^6 CFUs of S. aureus MW2-Wild type or MW2ΔSTK1 strains per well. Each data points represent Mean±S.D. P values of significance (**=<0.01, ***=<0.001) were determined using the t-test with Welch's corrections. NS—Not significant.
Subsequently, the susceptibility of S. aureus MW2 strain to Ceftriaxone, Cefotaxime, Inh2, and Inh2-B1 was confirmed by the CLSI recommended serial dilution method using Muller Hinton broth. Minimum bactericidal activity (MBC) was measured using Muller-Hinton agar. Changes in the MBC of Ceftriaxone/Cefotaxime in the presence of serially diluted Inh2-B1 was determined in two steps. Initial screening was carried out using the Checkerboard method using Muller-Hinton agar (FIG. 15). […] Subsequent time to kill assays were carried out using 50 μM Inh2-B1 and Ceftriaxone. Cefotaxime (1 μg/ml) in a final volume of 250 μl using a sterile 96-well (U-bottom) microtiter plate over a period of 16 h at 37° C. under constant rotation (120 rpm). Optical density and corresponding CFU counts were measured at every two-hour interval up to 8 hours with a final overnight reading at the end of incubation period. CFU counts were measured using appropriate dilution of 10 μl of properly mixed samples at each time interval. All experiments were performed in three biological replicates and the statistical analysis of the results obtained at each time point was carried out by the non-parametric t-test with Welch's correction using GraphPad Prism 6 software.

## COC(=O)c1ccc2c(=O)[nH]c3c(C(=O)Nc4ccccc4)sc(=S)n3c2c1 [Inh2-B1, Methyl 5-oxo-3-(phenylcarbamoyl)-1-thioxo-4,5dihydro[1,3]thiazolo[3,4-a]quinazoline-8-carboxylate]
[1]
  stability in the serum and body fluid, such as peritoneal fluid: remain stable
[2]; 100 μM Inh2-B1, 16 h
  log increase in growth from starting inoculum: more than 3 log
[2]; 100 μM Inh2-B1, 16 h, starting inoculum 4×10^6 CFU
  CFU count of MW2-WT after growth: 1.8±1.0×10^9 CFU
[2]; FIGS. 4A and 4B, mimicked MW2ΔSTK1
  growth pattern of the MW2 wild-type in the presence of Inh2-B1: slightly retarded
[2]; mixture of 1.5 μM Ceftriaxone (1 μg/ml) and 50 μM Inh2-B1
  growth of the MW2 wild-type, mixture: dramatically inhibited
[2]; only 50 μM Inh2-B1, only 1.5 μM Ceftriaxone (1 μg/ml) or only 3 μM Cefotaxime (1 μg/ml), 16 h
  growth pattern of the wild-type, single agent: remained unaltered
[2]; very high concentration (100 μM) of Inh2-B1
  log reduction in comparison to the wild-type: ~2 log
